Assay [1] deals with HDM2, p53 and p21 protein levels in MCF7 cells. As to the kind of experiment: Immunoblot of HDM2, p53 and p21 protein levels in treated cells. The format is cell-based. The settings on record: 16 hours, FIG. 6A. The method, then:
MCF7 and MM.1S were grown in RPMI supplemented with 10% Fetal Bovine serum (FBS) and antibiotics. Cells were treated with DMSO or different concentrations of compounds 10 and 11 for 6 (MM1S) or 16 (MCF7) hours in presence or absence of cycloheximide. For the experiments in which cycloheximide was used, cells were treated with compounds for 4 (MM1S) or 14 (MCF7) hours prior to the addition of 50 ug/ml of cycloheximide. At 6 or 16 h time point cells were washed in PBS and lysed in modified RIPA buffer (1% Triton X-100, 1% sodium deoxycholate, 0.1% SDS, 20 mM Tris, 150 mM NaCl, 1 mM EDTA) containing phosphatase inhibitor cocktails 1 and 2 (Sigma), and protease inhibitors. Protein concentrations were quantified using the BCA protein assay kit (Pierce) and samples were probed by immunoblotting using mdm2 (santa cruz sc-965), p53 (cell signaling 9282), p21 (cell signaling 2947), GAPDH (cell signaling 2118), USP7 (cell signaling 4833) antibodies (FIGS. 6A-D).
A general note: A western blot detects proteins with antibodies after separation by electrophoresis.

The target in assay [2] is T1, USP7 (Homo sapiens, UniProt Q93009). As to the kind of experiment: Isothermal titration calorimetry, binding affinity of protein/ligand. More on the design: made in house; host or cells: E. coli BL21 (DE3). Particulars: ITC at 20° C. As to the method:
The binding affinity of protein/ligand was measured by adding 0.02 mM protein in cell and titrating with 0.2 mM ligand in the syringe using an Auto-ITC200 microcalorimeter (Malvern) at 20° C. (FIG. 2C). Proteins and ligands were prepared within ITC buffer containing 20 mM HEPES pH 7.5, 150 mM NaCl, and 2% DMSO. The data were fit using Origin 7.0 software.
(In general: In ITC the heat of successive injections is recorded.)
Target sequence in this assay (Q93009 whole entry): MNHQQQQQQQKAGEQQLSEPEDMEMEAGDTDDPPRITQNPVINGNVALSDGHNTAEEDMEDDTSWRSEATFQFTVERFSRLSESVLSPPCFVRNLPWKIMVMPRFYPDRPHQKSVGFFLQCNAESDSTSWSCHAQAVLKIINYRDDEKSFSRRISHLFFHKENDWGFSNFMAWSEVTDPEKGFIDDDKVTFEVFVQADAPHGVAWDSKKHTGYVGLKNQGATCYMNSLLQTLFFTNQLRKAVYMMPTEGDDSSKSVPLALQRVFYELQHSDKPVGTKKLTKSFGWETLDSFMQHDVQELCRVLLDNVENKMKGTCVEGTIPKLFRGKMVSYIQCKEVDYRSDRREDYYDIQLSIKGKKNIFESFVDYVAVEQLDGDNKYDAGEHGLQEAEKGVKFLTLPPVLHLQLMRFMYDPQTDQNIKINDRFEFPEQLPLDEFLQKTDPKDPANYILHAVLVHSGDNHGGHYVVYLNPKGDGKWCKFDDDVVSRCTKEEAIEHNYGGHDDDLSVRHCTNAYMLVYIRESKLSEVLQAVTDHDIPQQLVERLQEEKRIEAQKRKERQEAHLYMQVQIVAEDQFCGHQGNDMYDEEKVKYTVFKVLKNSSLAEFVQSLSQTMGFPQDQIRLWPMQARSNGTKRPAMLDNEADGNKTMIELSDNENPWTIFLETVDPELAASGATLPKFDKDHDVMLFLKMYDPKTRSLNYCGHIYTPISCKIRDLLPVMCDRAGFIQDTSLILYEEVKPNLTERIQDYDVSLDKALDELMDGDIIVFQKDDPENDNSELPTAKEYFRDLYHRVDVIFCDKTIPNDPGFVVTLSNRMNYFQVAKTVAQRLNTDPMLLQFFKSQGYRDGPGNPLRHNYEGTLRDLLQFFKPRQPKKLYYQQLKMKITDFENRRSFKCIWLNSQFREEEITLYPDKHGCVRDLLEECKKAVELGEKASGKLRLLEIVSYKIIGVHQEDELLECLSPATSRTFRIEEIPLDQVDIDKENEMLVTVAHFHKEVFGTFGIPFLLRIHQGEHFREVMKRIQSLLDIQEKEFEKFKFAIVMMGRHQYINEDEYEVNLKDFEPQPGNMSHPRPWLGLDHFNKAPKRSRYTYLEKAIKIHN

Assay [3] deals with T1, USP7. As to the kind of experiment: Ub-AMC assay (USP7 assay). The format is biochemical. More on the design: fused on or other part: His tag from pET28aLIC; removed by thrombin for the catalytic domain, no removal step given for the full length. The settings on record: USP7 assay. The method, then:
USP7 and mutants were tested for their activity in Ubiquitin-AMC assay in presence or absence of inhibitors. […] For the same assay USP7 full length WT and Q351 mutant were used at 50 nM. […] The reaction was incubated 30 min at room temperature prior to the addition of 2 uM Ubiquitin-AMC (Boston Biochem) substrate. […] The calculated initial rate values were plotted against inhibitor concentrations to determine IC50s. All the experimental data were plotted using Prism GraphPad. FIG. 2A illustrates the structure guided optimization for the inhibition of USP7.
ND refers to not disclosed.
Target sequence in this assay (Q93009 208-560 limits assumed): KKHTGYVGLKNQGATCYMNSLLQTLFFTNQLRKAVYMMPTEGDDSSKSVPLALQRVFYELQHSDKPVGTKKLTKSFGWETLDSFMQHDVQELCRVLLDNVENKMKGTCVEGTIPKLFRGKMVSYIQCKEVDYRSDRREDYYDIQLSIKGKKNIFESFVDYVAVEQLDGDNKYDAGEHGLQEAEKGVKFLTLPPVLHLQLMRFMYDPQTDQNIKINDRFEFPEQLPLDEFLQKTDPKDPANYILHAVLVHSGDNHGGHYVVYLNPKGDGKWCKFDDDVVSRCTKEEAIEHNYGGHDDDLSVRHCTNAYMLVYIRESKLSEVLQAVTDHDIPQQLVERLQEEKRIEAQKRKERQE

These results are taken from patent US11465983B2, “USP7 inhibitors for treating multiple myeloma” (Dana-Farber Cancer Institute, Inc., priority 2017, dated 2022).

Each structure is given as a SMILES string. pIC50, pKd: −log10 of the molar value.

`C[C@H](CC(=O)N1CCC(O)(Cn2cnc3cc(NC(=O)CCN4CCN(C)CC4)ccc3c2=O)CC1)c1ccccc1` [Compound 10, (R)—N-(3-((4-Hydroxy-1-(3-phenylbutanoyl)piperidin-4-yl)methyl)-4-oxo-3,4-dihydroquinazolin-7-yl)-3-(4-methylpiperazin-1-yl)propanamide]: the “HDM2, p53 and p21 protein levels” value in assay [1] was “promotes loss HDM2 and accumulation of p53 and p21”. On USP7 [2], the “DH” value is -15.1 kcal/mol and the “n (stoichiometry)” value is reported as 1.06. Besides, the pKd at USP7 [2] (0.02 mM protein, 0.2 mM ligand) is 6.98. The same compound had a negative-log IC50 (pIC50) on USP7 [3] above 6.70.
On to `O=C(Cc1ccccc1)N1CCC(O)(Cn2cnc3cc(Cl)ccc3c2=O)CC1` [Compound 7, 7-Chloro-3-((4-hydroxy-1-(2-phenylacetyl)piperidin-4-yl)methyl)quinazolin-4(3H)-one], for which the “Kd (μM)” value at USP7 [2] (0.02 mM protein, 0.2 mM ligand) is reported as “No binding”. The same compound had a pIC50 at USP7 [3] below 5.00.
In the case of `C[C@@H](CC(=O)N1CCC(O)(Cn2cnc3cc(Cl)ccc3c2=O)CC1)c1ccccc1` [Compound 9, (S)-7-Chloro-3-((4-hydroxy-1-(3-phenylbutanoyl)piperidin-4-yl)methyl)quinazolin-4(3H)-one], at USP7 [2], the “DH” value is -13.5 kcal/mol, the “DS (cal/mol•K)” value was −17.3 cal/mol•K and the “n (stoichiometry)” value is recorded as 0.96. Also, the pKd at USP7 [2] (0.02 mM protein, 0.2 mM ligand) was 6.10. For the same compound, the pIC50 against USP7 [3] was above 6.70.
In the case of `O=C(CCc1ccccc1)N1CCC(O)(Cn2cnc3cc(Cl)ccc3c2=O)CC1` [Compound A, reference compound], at USP7 [2], the “DH” value is -5.4 kcal/mol, the “DS (cal/mol•K)” value turned out to be 5.3 cal/mol•K and the “n (stoichiometry)” value is given as 0.98. At USP7 [2] (0.02 mM protein, 0.2 mM ligand), this compound gave a pKd of 5.12.
As to `CC(CC(=O)N1CCC(O)(Cn2cnc3cc(Cl)ccc3c2=O)CC1)c1ccccc1` (stereo not drawn) [Compound 8, 7-Chloro-3-((4-hydroxy-1-(3-phenylbutanoyl)piperidin-4-yl)methyl)quinazolin-4(3H)-one], at USP7 [2], the “DH” value was -3.9 kcal/mol, the “DS (cal/mol•K)” value came to 13.1 cal/mol•K and the “n (stoichiometry)” value was found to be 2.46. Moreover, on USP7 [2] (0.02 mM protein, 0.2 mM ligand), the pKd was 5.74. This compound also gave a pIC50 against USP7 [3] above 6.70.
Regarding `O=C(CF)N[C@@H](Cc1ccccc1)C(=O)N1CCC(O)(Cn2cnc3cc(Cl)ccc3c2=O)CC1` [Compound 62], the pIC50 against USP7 [3] is below 5.00.
Compound `O=C(NCCCCC(=O)N1CCC(O)(Cn2cnc3cc(Cl)ccc3c2=O)CC1)c1ccc2c(c1)CCCN2C(=O)CCl` [Compound 19] gave a negative logarithm of the IC50 (pIC50) against USP7 [3] of 5.00 to 6.00.
The same measure, in the same setting: with `CC(=O)Nc1cccc2c(=O)n(CC3(O)CCN(C(=O)C[C@@H](C)c4ccccc4)CC3)cnc12` [Compound 50] the figure was 5.00 to 6.00; with `C[C@H](CC(=O)N1CCC(O)(Cn2cnc3cc(N)ccc3c2=O)CC1)c1ccccc1` [Compound 101], 6.00 to 6.70.
On the same count and under the same terms, with `C[C@@H](Cc1ccccc1)C(=O)N1CCC(O)(Cn2cnc3cc(Cl)ccc3c2=O)CC1` [Compound 73] the figure was below 5.00; with `O=C(CCn1cccc1)N1CCC(O)(Cn2cnc3cc(Cl)ccc3c2=O)CC1` [Compound 51], below 5.00.
Same read-out and setting: with `O=c1c2ccc(Cl)cc2ncn1CC1(O)CCN(C(=S)NCc2ccccc2)CC1` [Compound 37] the figure was below 5.00; with `CC(=O)Nc1ccc2c(=O)n(CC3(O)CCN(C(=O)C[C@@H](C)c4ccccc4)CC3)cnc2c1` [Compound 102], 6.00 to 6.70; with `CNC(=O)c1ccc2c(Cl)c3c(nc2c1)CCCC3` [Compound 90], below 5.00.

As a reminder, the pKd is the Kd on a negative log10 scale, so that one unit is a factor of ten. As a reminder, the pIC50 is −log10 of the IC50, conventionally taken in molar units.
